Some test systems named below: BT-549 breast; 786-0 renal; SR leukemia; DU-145 prostate; HOP-92 NSCLC; CCRF-CEM leukemia; SK-MEL-28 melanoma; CAKI-1 renal; MDA-MB-435; SW-620 colon.
What all share (assay): growth of human tumour cells (NCI), 48 h

Structures are written as SMILES.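 Protocol summary: plate cells (96-well), add compound at 5 concentrations, incubate 48 h, interpolate endpoints linearly. Here, GI50 denotes the concentration required for 50% inhibition of growth. TGI marks complete inhibition of growth.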

As for `Cc1[nH]c2cc(F)ccc2c1-c1nc2c3cccnc3c3ncccc3c2[nH]1`, the GI50 in the experiment with BT-549 breast is 0.215 µM; with 786-0 renal, 0.243 µM; in the experiment with SR leukemia it was 0.0723 µM; in the experiment with DU-145 prostate, 0.191 µM; in the experiment with HOP-92 NSCLC it was 0.204 µM; in the experiment with CCRF-CEM leukemia, 0.0672 µM. The GI50 in the experiment on SK-MEL-28 melanoma was 0.239 µM; in the experiment on CAKI-1 renal, 0.289 µM; in the experiment on MDA-MB-435 it was 0.342 µM; in the experiment on SW-620 colon, 0.282 µM. Also, the TGI in the experiment on BT-549 breast was determined as 1.57 µM; in the experiment on 786-0 renal, 0.973 µM; in the experiment with SR leukemia it was 0.797 µM; in the experiment with DU-145 prostate, 1.8 µM; in the experiment with HOP-92 NSCLC, 1.41 µM; with CCRF-CEM leukemia it was 0.644 µM. For the same compound, the TGI in the experiment on SK-MEL-28 melanoma worked out at 1.72 µM; in the experiment on CAKI-1 renal, 1.19 µM; in the experiment on MDA-MB-435, 1.48 µM; with SW-620 colon, 1.84 µM.

For the compound `CN1CCN(c2nc(-c3csc(-c4cccs4)n3)cc3ccccc23)CC1`, the GI50 with BT-549 breast is 1.82 µM; in the experiment with 786-0 renal, 1.64 µM; in the experiment on SR leukemia, 3.1 µM; with DU-145 prostate it was 1.8 µM; in the experiment with HOP-92 NSCLC it was 1.44 µM; in the experiment with CCRF-CEM leukemia, 2 µM. Besides, the GI50 was 1.77 µM with SK-MEL-28 melanoma, 1.61 µM in the experiment on CAKI-1 renal, 1.73 µM in the experiment with MDA-MB-435 and 1.75 µM with SW-620 colon. The TGI in the experiment on BT-549 breast came out at 3.94 µM; in the experiment with 786-0 renal it was 3.15 µM; in the experiment on DU-145 prostate, 3.34 µM; with HOP-92 NSCLC it was 3.75 µM; with CCRF-CEM leukemia it was 4.46 µM; with SK-MEL-28 melanoma, 3.24 µM. Besides, the TGI was 3.01 µM with CAKI-1 renal, 3.24 µM in the experiment with MDA-MB-435 and 3.25 µM in the experiment on SW-620 colon.

Take `CCC(C)C(=O)OCC(=O)c1ccc(-c2ccccc2)cc1` (centres undefined): the TGI in the experiment on BT-549 breast, in the experiment on 786-0 renal, with SR leukemia, in the experiment with DU-145 prostate, in the experiment with HOP-92 NSCLC and in the experiment with CCRF-CEM leukemia was over 100 µM in each case. Besides, the TGI in the experiment on SK-MEL-28 melanoma, in the experiment on CAKI-1 renal, in the experiment with MDA-MB-435 and in the experiment on SW-620 colon was over 100 µM in each case.

Consider `NC(=O)c1sc(-n2cnc3cc(C(F)(F)F)ccc32)cc1OCc1ccccc1Br`, for which the GI50 in the experiment on BT-549 breast was over 25 µM; in the experiment on 786-0 renal it was 18.4 µM; in the experiment on SR leukemia it was over 21.2 µM; in the experiment with DU-145 prostate, over 25 µM; in the experiment on HOP-92 NSCLC it was 8.02 µM; with CCRF-CEM leukemia, over 19.2 µM. For the same compound, the GI50 is over 23.4 µM in the experiment on SK-MEL-28 melanoma, over 25 µM in the experiment on CAKI-1 renal, over 16.5 µM in the experiment on MDA-MB-435 and over 17.9 µM in the experiment with SW-620 colon. Besides, the TGI in the experiment on BT-549 breast, in the experiment on 786-0 renal, with SR leukemia, in the experiment with DU-145 prostate, in the experiment with HOP-92 NSCLC and in the experiment with CCRF-CEM leukemia was over 25 µM throughout. Also, the TGI in the experiment with SK-MEL-28 melanoma, in the experiment with CAKI-1 renal, with MDA-MB-435 and with SW-620 colon was over 25 µM each time.

As to `C/C(=N\NC(=S)N1CCCCCC1)c1cccc2cccnc12`, the TGI was over 92.4 µM with BT-549 breast; over 86.9 µM with 786-0 renal; 14.5 µM with SR leukemia; over 100 µM with DU-145 prostate; over 100 µM in the experiment on HOP-92 NSCLC; over 100 µM in the experiment on CCRF-CEM leukemia. For the same compound, the TGI is over 66.4 µM with SK-MEL-28 melanoma, 2.42 µM in the experiment on CAKI-1 renal, over 100 µM with MDA-MB-435 and over 100 µM in the experiment with SW-620 colon.

For `CC(=O)O[C@H]1CC[C@@]2(C)C(=C/C(=N/OCCN3CCCC3)[C@H]3[C@@H]4CC[C@H](OC(C)=O)[C@@]4(C)CC[C@@H]32)C1`, the GI50 was 53.4 µM with BT-549 breast; 30.8 µM in the experiment on 786-0 renal; 10.4 µM in the experiment with SR leukemia; over 100 µM with DU-145 prostate; 16.7 µM in the experiment on HOP-92 NSCLC; 42.9 µM with CCRF-CEM leukemia. Also, the GI50 with SK-MEL-28 melanoma was 31.2 µM; in the experiment with CAKI-1 renal it was over 100 µM; in the experiment with MDA-MB-435, 53 µM; with SW-620 colon, 24.1 µM. In addition, the TGI in the experiment with BT-549 breast is over 100 µM; in the experiment with 786-0 renal, over 100 µM; with SR leukemia it was 44.1 µM; in the experiment on DU-145 prostate it was over 100 µM; with HOP-92 NSCLC, 96.5 µM; with CCRF-CEM leukemia it was over 100 µM. The TGI in the experiment with SK-MEL-28 melanoma is 64.1 µM; in the experiment with CAKI-1 renal, over 100 µM; with MDA-MB-435 it was over 100 µM; with SW-620 colon, 59.8 µM.

Consider `Cn1cc(C2=C(Nc3ccccc3)C(=O)NC2=O)c2ccccc21`, for which the GI50 in the experiment with BT-549 breast, with 786-0 renal, in the experiment on SR leukemia, in the experiment with DU-145 prostate, in the experiment with HOP-92 NSCLC and with CCRF-CEM leukemia was over 25 µM in each case. Moreover, the GI50 with SK-MEL-28 melanoma, in the experiment with CAKI-1 renal, with MDA-MB-435 and with SW-620 colon was over 25 µM each time. The TGI in the experiment with BT-549 breast, in the experiment on 786-0 renal, with SR leukemia, with DU-145 prostate, with HOP-92 NSCLC and with CCRF-CEM leukemia was over 25 µM in each case. In addition, the TGI in the experiment on SK-MEL-28 melanoma, with CAKI-1 renal, in the experiment on MDA-MB-435 and in the experiment on SW-620 colon was over 25 µM in each case.

The record behind these values is PubChem BioAssay (NCI).
